The target in one data set is T1, cannabinoid CB1 receptor (Homo sapiens, UniProt P21554).
T1 construct: host or cells: HEK293 CB1 β-arrestin cells
The data set can be described thus: PathHunter β-Arrestin assay (allosteric inhibition of agonist Emax). In kind it is cell-based. The note with it: HEK293 CB1 β-arrestin cells; concentration of modulator giving 50% reduction in agonist Emax; 60 min pre-incubation. From the text: PathHunter™ enzyme fragment complementation is the most important method to measure β-arrestin recruitment. PathHunter™ β-Arrestin assays developed by DiscoveRX are revolutionary high-throughput screening assays for monitoring GPCR activation following ligand stimulation, without an imaging instrument, fluorescent protein tag, or radioactivity.
Instead, the assays detect GPCR activation through binding of β-arrestin to the expressed GPCR of interest, and measure the interaction of the two proteins using enzyme fragment complementation (EFC). The EFC approach offers a range of benefits for screening, including signal amplification and robust performance.
The larger portion of β-gal, termed EA for enzyme acceptor, is fused to the C-terminus of β-arrestin. The smaller, complementing fragment of β-gal, the ProLink™ tag, is expressed as a fusion protein with the GPCR of interest at the C-terminus. Upon activation, the GPCR is bound by β-arrestin. The interaction of β-arrestin and the GPCR forces the interaction of ProLink and EA, thus allowing complementation of the two fragments of β-gal and the formation of a functional enzyme capable of hydrolyzing substrate and generating a […] signal.
Using the PathHunter™ CB1 kit from DiscoveRX, a cannabinoid CB1 receptor agonist is added and activates the receptor, EA, which is fused to the C-terminus of β-arrestin, and then interacts with the ProLink™ tag which is fused to the CB1 receptor. This will result in the […] signal that is recorded by a luminescence plate reader. The […] signal is directly related to the activation of the receptor, therefore a higher concentration of agonist will yield a larger […] signal. The cannabinoid agonist is added in increasing concentrations to obtain an agonist dose response curve. With pre-incubation of a potential allosteric modulator, either an enhancement of agonist activity with an allosteric enhancer or a decrease in the maximal response of the agonist with an allosteric inhibitor is expected.
All raw data are obtained as luminescence (relative light units), and are normalised and presented as a percentage of the maximal response for the cannabinoid CB1 receptor agonist CP55,940 (2-[(1R,2R,5R)-5-hydroxy-2-(3-hydroxypropyl)cyclohexyl]-5-(2-methyloctan-2-yl)phenol).
The PathHunter™ β-Arrestin assay (from DiscoveRX, Fremont, USA) was performed as follows. HEK293 CB1 β-arrestin cells were plated 48 hours before use and incubated at 37° C., 5% CO2 in a humidified incubator. Test compounds were dissolved in dimethylsulfoxide (DMSO) and diluted in optimized cell culture (OCC, as supplied by DiscoveRX) media to the required concentrations. 5 μL of test compound or vehicle solution was added to each well and incubated for 60 minutes at 37° C., 5% CO2 in a humidified incubator. 5 μL of increasing concentrations of anandamide was added to each well followed by a 90-minute incubation at 37° C., 5% CO2 in a humidified incubator. 55 μL of detection reagent (as supplied by DiscoveRX) was then added, followed by a further 90 minute incubation at room temperature in the dark. Chemiluminescence, reported in relative light units (RLU—a dimensionless value, standardised as a % of maximum stimulation with anandamide), was measured on a standard luminescence plate reader.
Data were plotted as % of maximal stimulation (Emax) caused by agonist versus the logarithm of concentration of agonist, in the presence or absence of a fixed concentration of test compound (modulator) or vehicle. For example, stimulation in the presence of agonist alone will give a value for stimulation expressed in RLU, which can be expressed as a range from 0% (at lowest agonist concentration, e.g., 1 nM) to 100% (at the highest agonist concentration, e.g., 10 μM). […]

This note sets out measurements from patent publication US20220257569A1, “INDOLE-OXADIAZOLE COMPOUNDS AND THEIR THERAPEUTIC USE” (THE GOVERNING COUNCIL OF THE UNIVERSITY OF TORONTO, priority 2018, published 2022).

pIC50: −log10 of the molar value.

T1 sequence (P21554 whole entry): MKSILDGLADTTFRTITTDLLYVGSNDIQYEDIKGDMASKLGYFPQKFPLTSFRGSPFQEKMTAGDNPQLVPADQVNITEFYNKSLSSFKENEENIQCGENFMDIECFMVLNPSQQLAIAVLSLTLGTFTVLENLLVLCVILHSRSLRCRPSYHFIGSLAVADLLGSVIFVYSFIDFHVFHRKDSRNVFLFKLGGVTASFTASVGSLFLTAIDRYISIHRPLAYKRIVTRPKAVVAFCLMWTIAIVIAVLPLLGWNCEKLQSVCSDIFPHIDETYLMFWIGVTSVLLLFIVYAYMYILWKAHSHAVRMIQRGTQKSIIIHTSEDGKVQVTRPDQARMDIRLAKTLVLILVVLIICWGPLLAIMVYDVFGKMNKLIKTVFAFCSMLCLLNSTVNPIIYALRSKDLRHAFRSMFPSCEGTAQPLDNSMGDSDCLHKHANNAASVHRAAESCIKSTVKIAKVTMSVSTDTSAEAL

The melting point is the temperature, or range, at which the solid turns liquid. Broadly, the pIC50 is the negative decadic logarithm of the IC50, by convention in mol/L. `COc1ccc(CSc2nnc(-c3[nH]c4ccc(Cl)cc4c3C)o2)cc1` [ABM301, 2-(5-Chloro-3-methyl-1H-indol-2-yl)-5-((4-methoxybenzyl)thio)-1,3,4-oxadiazole] yielded a melting point of 210 to 212 °C. In addition, on cannabinoid CB1 receptor, the pIC50 is 7.17.
`CCc1c(-c2nnc(SCc3ccccc3)o2)[nH]c2ccc(Br)cc12` [ABM305, 2-(Benzylthio)-5-(5-bromo-3-ethyl-1H-indol-2-yl)-1,3,4-oxadiazole] had a melting point of 183 to 185 °C. Also, the negative-log IC50 (pIC50) on cannabinoid CB1 receptor is 7.52.
Take `CCc1c(-c2nnc(SCc3ccc(OC)cc3)o2)[nH]c2ccc(Br)cc12` [ABM309, 2-(5-Bromo-3-ethyl-1H-indol-2-yl)-5-((4-methoxybenzyl)thio)-1,3,4-oxadiazole]: the melting point fell in the range of 181 to 183 °C.
Consider `Clc1ccc2[nH]c(-c3nnc(Nc4ccccc4)o3)cc2c1` [ABM310, 5-(5-Chloro-1H-indol-2-yl)-N-phenyl-1,3,4-oxadiazol-2-amine], for which the melting point was in the range of 272 to 274 °C. Also, the negative-log IC50 (pIC50) on cannabinoid CB1 receptor is 8.52.
`Cc1c(-c2nnc(Nc3ccccc3)o2)[nH]c2ccc(Cl)cc12` [ABM311, 5-(5-Chloro-3-methyl-1H-indol-2-yl)-N-phenyl-1,3,4-oxadiazol-2-amine] came in with a melting point of 268 to 270 °C. Moreover, the pIC50 on cannabinoid CB1 receptor was 8.70.
`CCc1c(-c2nnc(Nc3ccccc3)o2)[nH]c2ccc(Br)cc12` [ABM312, 5-(5-Bromo-3-ethyl-1H-indol-2-yl)-N-phenyl-1,3,4-oxadiazol-2-amine]: the melting point lay in the range of 240 to 242 °C. The negative-log IC50 (pIC50) at cannabinoid CB1 receptor was 9.00.
As to `CCc1c(-c2nnc(NCc3ccccc3)o2)[nH]c2ccc(Cl)cc12` [ABM313, N-Benzyl-5-(5-chloro-3-ethyl-1H-indol-2-yl)-1,3,4-oxadiazol-2-amine], the melting point lay in the range of 216 to 218 °C. Also, the negative logarithm of the IC50 (pIC50) at cannabinoid CB1 receptor is 7.92.
`Clc1ccc2[nH]c(-c3nnc(NCc4ccccc4)o3)cc2c1` [ABM314, N-Benzyl-5-(5-chloro-1H-indol-2-yl)-1,3,4-oxadiazol-2-amine] had a melting point of 245 to 247 °C. For the same compound, on cannabinoid CB1 receptor, the pIC50 is 6.98.
Compound `Cc1c(-c2nnc(NCc3ccccc3)o2)[nH]c2ccc(Cl)cc12` [ABM315, N-Benzyl-5-(5-chloro-3-methyl-1H-indol-2-yl)-1,3,4-oxadiazol-2-amine] registered a melting point of 220 to 222 °C. Moreover, the pIC50 on cannabinoid CB1 receptor is 8.15.
Take `CCc1c(-c2nnc(NCc3ccccc3)o2)[nH]c2ccc(Br)cc12` [ABM316, N-Benzyl-5-(5-bromo-3-ethyl-1H-indol-2-yl)-1,3,4-oxadiazol-2-amine]: the melting point was 218 to 220 °C. Besides, the pIC50 at cannabinoid CB1 receptor is 7.92.
The matching figures for `CCc1c(-c2nnc(NCCc3ccccc3)o2)[nH]c2ccc(Cl)cc12` [ABM317, 5-(5-Chloro-3-ethyl-1H-indol-2-yl)-N-phenethyl-1,3,4-oxadiazol-2-amine]: 175 to 177 °C and 9.30.
The like results for `Clc1ccc2[nH]c(-c3nnc(NCCc4ccccc4)o3)cc2c1` [ABM318, 5-(5-Chloro-1H-indol-2-yl)-N-phenethyl-1,3,4-oxadiazol-2-amine] were, in that order, 235 to 237 °C and 8.52.
`Cc1c(-c2nnc(NCCc3ccccc3)o2)[nH]c2ccc(Cl)cc12` [ABM319, 5-(5-Chloro-3-methyl-1H-indol-2-yl)-N-phenethyl-1,3,4-oxadiazol-2-amine] returned a melting point of 195 to 197 °C. Further, the pIC50 on cannabinoid CB1 receptor was 9.00.
As for `CCc1c(-c2nnc(NCCc3ccccc3)o2)[nH]c2ccc(Br)cc12` [ABM320, 5-(5-Bromo-3-ethyl-1H-indol-2-yl)-N-phenethyl-1,3,4-oxadiazol-2-amine], the melting point was 170 to 172 °C. Besides, on cannabinoid CB1 receptor, the pIC50 was 9.00.
With `Cc1c(-c2nnc(SCc3ccccc3)o2)[nH]c2ccc(Cl)cc12` [ABM321, 2-(Benzylthio)-5-(5-chloro-3-methyl-1H-indol-2-yl)-1,3,4-oxadiazole], the melting point lay in the range of 215 to 216 °C. On cannabinoid CB1 receptor, the pIC50 is 7.03.
Take `Cc1c(-c2nnc(SCCc3ccccc3)o2)[nH]c2ccc(Cl)cc12` [ABM322, 2-(5-Chloro-3-methyl-1H-indol-2-yl)-5-(phenethylthio)-1,3,4-oxadiazole]: the melting point is 222 to 224 °C. Also, the pIC50 at cannabinoid CB1 receptor was 6.38.
The matching figures for `Cc1c(-c2nnc(SCCCc3ccccc3)o2)[nH]c2ccc(Cl)cc12` [ABM323, 2-(5-Chloro-3-methyl-1H-indol-2-yl)-5-((3-phenylpropyl)thio)-1,3,4-oxadiazole]: 179 to 180 °C and 6.58.
With `Cc1ccc(CSc2nnc(-c3[nH]c4ccc(Cl)cc4c3C)o2)cc1` [ABM324, 2-(5-Chloro-3-methyl-1H-indol-2-yl)-5-((4-methylbenzyl)thio)-1,3,4-oxadiazole], the melting point lay in the range of 212 to 214 °C.
Compound `CCc1c(-c2nnc(SCCc3ccccc3)o2)[nH]c2ccc(Br)cc12` [ABM325] showed a melting point of 185 to 186 °C. Further, the pIC50 on cannabinoid CB1 receptor is 6.50.
`CCc1c(-c2nnc(SCCCc3ccccc3)o2)[nH]c2ccc(Br)cc12` [ABM326, 2-(5-Bromo-3-ethyl-1H-indol-2-yl)-5-((3-phenylpropyl)thio)-1,3,4-oxadiazole]: the melting point was in the range of 134 to 135 °C.
As for `CCc1c(-c2nnc(SCc3ccc(C)cc3)o2)[nH]c2ccc(Br)cc12` [ABM327, 2-(5-Bromo-3-ethyl-1H-indol-2-yl)-5-((4-methylbenzyl)thio)-1,3,4-oxadiazole], the melting point fell in the range of 201 to 203 °C. Further, the negative logarithm of the IC50 (pIC50) on cannabinoid CB1 receptor is 7.17.
As to `CCc1c(-c2nnc(SCCc3ccccc3)o2)[nH]c2ccc(Cl)cc12` [ABM329, 2-(5-Chloro-3-ethyl-1H-indol-2-yl)-5-(phenethylthio)-1,3,4-oxadiazole], the pIC50 on cannabinoid CB1 receptor is 6.03.
Take `CCc1c(-c2nnc(SCCCc3ccccc3)o2)[nH]c2ccc(Cl)cc12` [ABM330, 2-(5-Chloro-3-ethyl-1H-indol-2-yl)-5-((3-phenylpropyl)thio)-1,3,4-oxadiazole]: the melting point lay in the range of 170 to 172 °C.
`CCc1c(-c2nnc(SCc3ccc(OC)cc3)o2)[nH]c2ccc(Cl)cc12` [ABM331, 2-(5-Chloro-3-ethyl-1H-indol-2-yl)-5-((4-methoxybenzyl)thio)-1,3,4-oxadiazole] displayed a melting point of 179 to 181 °C. Besides, at cannabinoid CB1 receptor, the pIC50 was 7.25.
The like results for `CCc1c(-c2nnc(SCc3ccc(C)cc3)o2)[nH]c2ccc(Cl)cc12` [ABM332, 2-(5-Chloro-3-ethyl-1H-indol-2-yl)-5-((4-methylbenzyl)thio)-1,3,4-oxadiazole] were, in that order, 195 to 197 °C and 7.07.
In turn, `c1ccc(CSc2nnc(-c3cc4ccccc4[nH]3)o2)cc1` [ABM333, 2-(Benzylthio)-5-(1H-indol-2-yl)-1,3,4-oxadiazole] came in with a melting point of 178 to 180 °C.
`c1ccc(CCSc2nnc(-c3cc4ccccc4[nH]3)o2)cc1` [ABM334, 2-(1H-Indol-2-yl)-5-(phenethylthio)-1,3,4-oxadiazole] gave a melting point of 184 to 186 °C. Further, the negative logarithm of the IC50 (pIC50) on cannabinoid CB1 receptor is 6.76.
The compound `CCc1c(-c2nnc(Nc3ccc(F)cc3)o2)[nH]c2ccc(Cl)cc12` [ABM335, 5-(5-Chloro-3-ethyl-1H-indol-2-yl)-N-(4-fluorophenyl)-1,3,4-oxadiazol-2-amine] displayed a melting point of 248 to 250 °C. Moreover, the negative-log IC50 (pIC50) on cannabinoid CB1 receptor is 9.00.
As for `Fc1ccc(Nc2nnc(-c3cc4cc(Cl)ccc4[nH]3)o2)cc1` [ABM336, 5-(5-Chloro-1H-indol-2-yl)-N-(4-fluorophenyl)-1,3,4-oxadiazol-2-amine], the melting point fell in the range of 265 to 267 °C. Moreover, the pIC50 on cannabinoid CB1 receptor is 8.30.
